Source: patent publication US6737383B1, “Herbicidal oxadiazolidines” (priority 1999, dated 2004)

Experiments:
rice = experiment: Test B flood test rice; assay type: in vivo, Oryza sativa
Procedure, shortened: (§1)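 Flood test on plants grown to the 2-leaf stage; treated plants kept in greenhouse twelve to sixteen days, then visually rated against controls on a 0 (no effect) to 10 (complete control) scale.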

duck salad = experiment: Test B flood test duck salad; assay type: in vivo, Heteranthera limosa
Procedure, shortened: as §1

smallflower flatsedge = experiment: Test B flood test smallflower flatsedge; assay type: in vivo, Cyperus difformis
Procedure, shortened: as §1

bamyardgrass = experiment: Test B flood test barnyardgrass; assay type: in vivo, Echinochloa crus-galli
Procedure, shortened: as §1

bedstraw = experiment: Test B pre/postemergence bedstraw; assay type: in vivo, Galium aparine
Procedure, shortened: (§2)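 Response is a visual 0-to-10 score relative to untreated plants, where 0 means no effect and 10 means complete control, taken twelve to sixteen days after application. Treatments went onto soil at planting and onto foliage of 1- to 4-leaf plants, using a surfactant-containing non-phytotoxic solvent.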

morningglory = experiment: Test B pre/postemergence morningglory; assay type: in vivo, Ipomoea hederacea
Procedure, shortened: as §2

blackgrass = experiment: Test B pre/postemergence blackgrass; assay type: in vivo, Alopecurus myosuroides
Procedure, shortened: as §2

purple nutsedge = experiment: Test B pre/postemergence purple nutsedge; assay type: in vivo, Cyperus rotundus
Procedure, shortened: as §2

rape = experiment: Test B pre/postemergence rape; assay type: in vivo, Brassica napus
Procedure, shortened: as §2

soybean = experiment: Test B pre/postemergence soybean; assay type: in vivo, Glycine max
Procedure, shortened: as §2

cocklebur = experiment: Test B pre/postemergence cocklebur; assay type: in vivo, Xanthium strumarium
Procedure, shortened: as §2

velvetleaf = experiment: Test B pre/postemergence velvetleaf; assay type: in vivo, Abutilon theophrasti
Procedure, shortened: as §2

sugar beet = experiment: Test B pre/postemergence sugar beet; assay type: in vivo, Beta vulgaris
Procedure, shortened: as §2

corn = experiment: Test B pre/postemergence corn; assay type: in vivo, Zea mays
Procedure, shortened: as §2

wild oat = experiment: Test B pre/postemergence wild oat; assay type: in vivo, Avena fatua
Procedure, shortened: as §2

crabgrass = experiment: Test B pre/postemergence crabgrass; assay type: in vivo, Digitaria sanguinalis
Procedure, shortened: as §2

wheat = experiment: Test B pre/postemergence wheat; assay type: in vivo, Triticum aestivum
Procedure, shortened: as §2

surinam grass = experiment: Test B pre/postemergence surinam grass; assay type: in vivo, Brachiaria decumbens
Procedure, shortened: as §2

pigweed = experiment: Test B pre/postemergence pigweed; assay type: in vivo, Amaranthus retroflexus
Procedure, shortened: as §2

giant foxtail = experiment: Test B pre/postemergence giant foxtail; assay type: in vivo, Setaria faberii
Procedure, shortened: as §2

[1] = Postemergence, Rate 62 g/ha, scale 0 to 10, 0 is no effect, 10 is complete control
[2] = Rate 125 g/ha, Postemergence section (flood test species), scale 0 to 10, 0 no effect, 10 complete control
[3] = Rate 500 g/ha, listed under Postemergence (flood test species), scale 0 to 10, 0 no effect, 10 complete control
[4] = flood test, listed under Postemergence, Rate 250 g/ha, scale 0 to 10, 0 no effect, 10 complete control
[5] = Postemergence, Rate 250 g/ha, scale 0 to 10, 0 no effect, 10 complete control
[6] = Preemergence, Rate 62 g/ha, scale 0 to 10, 0 is no effect, 10 is complete control
[7] = Preemergence, Rate 125 g/ha, scale 0 to 10 (0 no effect, 10 complete control)
[8] = Preemergence, Rate 250 g/ha, scale of 0 to 10 where 0 is no effect and 10 is complete control
[9] = Preemergence, Rate 500 g/ha, scale 0 (no effect) to 10 (complete control)
[10] = Rate 125 g/ha, Postemergence, scale 0 to 10, 0 no effect, 10 complete control
[11] = Rate 500 g/ha, Postemergence, scale 0 to 10, 0 no effect, 10 complete control
[12] = Rate 62 g/ha, flood test species, Pre-emergence, visual evaluation after twelve to sixteen days
[13] = Rate 125 g/ha, Pre-emergence, flood test species, scale 0 to 10 where 0 is no effect and 10 is complete control
[14] = Rate 250 g/ha, Pre-emergence, flood-test species, scale 0 to 10, 0 is no effect, 10 is complete control
[15] = Rate 500 g/ha, Pre-emergence, flood test species, scale 0 to 10 (0 no effect, 10 complete control)

## CCN(CC)C(=O)n1oc(=O)n(Cc2ccccc2C)c1=O [Compound 84]
rice; [1]
  Rice plant response rating: 0
rice; [2]
  Rice plant response rating: 0
rice; [3]
  Rice plant response rating: 0
rice; [4]
  Rice plant response rating: 0
Duck salad; [1]
  Ducksalad plant response rating: 0
Duck salad; [2]
  Ducksalad plant response rating: 0
Duck salad; [3]
  Ducksalad plant response rating: 0
Duck salad; [4]
  Ducksalad plant response rating: 0
Smallflower flatsedge; [1]
  S. Flatsedge plant response rating: 0
Smallflower flatsedge; [2]
  S. Flatsedge plant response rating: 0
Smallflower flatsedge; [3]
  S. Flatsedge plant response rating: 0
Smallflower flatsedge; [4]
  S. Flatsedge plant response rating: 0
bamyardgrass; [1]
  Barnyardgrass plant response rating: 0
bamyardgrass; [2]
  Barnyardgrass plant response rating: 0
bamyardgrass; [3]
  Barnyardgrass plant response rating: 0
bamyardgrass; [4]
  Barnyardgrass plant response rating: 0

## COc1ccc(N(C(=O)n2oc(=O)n(-c3ccccc3C)c2=O)C(C)C)cc1 [Compound 49]
bedstraw; [1]
  Bedstraw plant response rating: 0
bedstraw; [5]
  Bedstraw plant response rating: 5
bedstraw; [6]
  Plant response rating, Bedstraw: 0
bedstraw; [7]
  Plant response rating, Bedstraw: 0
bedstraw; [8]
  Plant response rating, Bedstraw: 0
bedstraw; [9]
  Bedstraw plant response rating: 0
bedstraw; [10]
  Bedstraw plant response rating: 0
morningglory; [1]
  Morningglory plant response rating: 0
morningglory; [5]
  Morningglory plant response rating: 0
morningglory; [6]
  Plant response rating, Morningglory: 0
morningglory; [7]
  Plant response rating, Morningglory: 0
morningglory; [8]
  Plant response rating, Morningglory: 0
morningglory; [9]
  Morningglory plant response rating: 0
morningglory; [10]
  Morningglory plant response rating: 0
morningglory; [11]
  Morningglory plant response rating: 3
blackgrass; [1]
  Blackgrass plant response rating: 0
blackgrass; [5]
  Blackgrass plant response rating: 0
blackgrass; [6]
  Plant response rating, Blackgrass: 0
blackgrass; [7]
  Plant response rating, Blackgrass: 0
blackgrass; [8]
  Plant response rating, Blackgrass: 0
blackgrass; [9]
  Blackgrass plant response rating: 0
blackgrass; [10]
  Blackgrass plant response rating: 0
blackgrass; [11]
  Blackgrass plant response rating: 0
Purple nutsedge; [1]
  Nutsedge plant response rating: 0
Purple nutsedge; [5]
  Nutsedge plant response rating: 0
Purple nutsedge; [6]
  Plant response rating, Nutsedge: 0
Purple nutsedge; [7]
  Plant response rating, Nutsedge: 0
Purple nutsedge; [8]
  Plant response rating, Nutsedge: 0
Purple nutsedge; [9]
  Nutsedge plant response rating: 0
Purple nutsedge; [10]
  Nutsedge plant response rating: 0
Purple nutsedge; [11]
  Nutsedge plant response rating: 0
rape; [1]
  Rape plant response rating: 0
rape; [5]
  Rape plant response rating: 0
rape; [6]
  Plant response rating, Rape: 0
rape; [7]
  Plant response rating, Rape: 0
rape; [8]
  Plant response rating, Rape: 0
rape; [9]
  Rape plant response rating: 0
rape; [10]
  Rape plant response rating: 0
rape; [11]
  Rape plant response rating: 0
soybean; [1]
  Soybean plant response rating: 1
soybean; [5]
  Soybean plant response rating: 1
soybean; [6]
  Plant response rating, Soybean: 0
soybean; [7]
  Plant response rating, Soybean: 0
soybean; [8]
  Plant response rating, Soybean: 0
soybean; [9]
  Soybean plant response rating: 0
soybean; [10]
  Soybean plant response rating: 1
soybean; [11]
  Soybean plant response rating: 1
cocklebur; [1]
  Cocklebur plant response rating: 0
cocklebur; [5]
  Cocklebur plant response rating: 0
cocklebur; [6]
  Plant response rating, Cocklebur: 0
cocklebur; [7]
  Plant response rating, Cocklebur: 0
cocklebur; [8]
  Plant response rating, Cocklebur: 0
cocklebur; [9]
  Cocklebur plant response rating: 0
cocklebur; [10]
  Cocklebur plant response rating: 0
cocklebur; [11]
  Cocklebur plant response rating: 0
velvetleaf; [1]
  Velvetleaf plant response rating: 0
velvetleaf; [5]
  Velvetleaf plant response rating: 0
velvetleaf; [6]
  Plant response rating, Velvetleaf: 0
velvetleaf; [7]
  Plant response rating, Velvetleaf: 0
velvetleaf; [8]
  Plant response rating, Velvetleaf: 0
velvetleaf; [9]
  Velvetleaf plant response rating: 0
velvetleaf; [10]
  Velvetleaf plant response rating: 0
velvetleaf; [11]
  Velvetleaf plant response rating: 0
Sugar beet; [1]
  Sugarbeets plant response rating: 0
Sugar beet; [5]
  Sugarbeets plant response rating: 0
Sugar beet; [6]
  Plant response rating, Sugarbeets: 0
Sugar beet; [7]
  Plant response rating, Sugarbeets: 0
Sugar beet; [8]
  Plant response rating, Sugarbeets: 0
Sugar beet; [9]
  Sugarbeets plant response rating: 0
Sugar beet; [10]
  Sugarbeets plant response rating: 0
Sugar beet; [11]
  Sugarbeets plant response rating: 0
corn; [1]
  Corn plant response rating: 0
corn; [5]
  Corn plant response rating: 0
corn; [6]
  Plant response rating, Corn: 0
corn; [7]
  Plant response rating, Corn: 0
corn; [8]
  Plant response rating, Corn: 0
corn; [9]
  Corn plant response rating: 0
corn; [10]
  Corn plant response rating: 0
corn; [11]
  Corn plant response rating: 0
Wild oat; [1]
  Wild oats plant response rating: 0
Wild oat; [5]
  Wild oats plant response rating: 0
Wild oat; [7]
  Plant response rating, Wild oats: 0
Wild oat; [8]
  Plant response rating, Wild oats: 0
Wild oat; [9]
  Wild oats plant response rating: 0
Wild oat; [10]
  Wild oats plant response rating: 0
Wild oat; [11]
  Wild oats plant response rating: 0
rice; [2]
  Rice plant response rating: 0
crabgrass; [1]
  Crabgrass plant response rating: 0
crabgrass; [5]
  Crabgrass plant response rating: 8
crabgrass; [6]
  Plant response rating, Crabgrass: 2
crabgrass; [7]
  Plant response rating, Crabgrass: 7
crabgrass; [8]
  Plant response rating, Crabgrass: 9
crabgrass; [9]
  Crabgrass plant response rating: 9
crabgrass; [10]
  Crabgrass plant response rating: 1
crabgrass; [11]
  Crabgrass plant response rating: 9
wheat; [1]
  Wheat plant response rating: 0
wheat; [5]
  Wheat plant response rating: 0
wheat; [6]
  Plant response rating, Wheat: 0
wheat; [7]
  Plant response rating, Wheat: 0
wheat; [8]
  Plant response rating, Wheat: 0
wheat; [9]
  Wheat plant response rating: 0
wheat; [10]
  Wheat plant response rating: 0
wheat; [11]
  Wheat plant response rating: 0
Duck salad; [2]
  Ducksalad plant response rating: 0
Surinam grass; [1]
  B. signalgrass plant response rating: 0
Surinam grass; [5]
  B. signalgrass plant response rating: 0
Surinam grass; [6]
  Plant response rating, B. signalgrass: 0
Surinam grass; [7]
  Plant response rating, B. signalgrass: 0
Surinam grass; [8]
  Plant response rating, B. signalgrass: 0
Surinam grass; [9]
  B. signalgrass plant response rating: 0
Surinam grass; [10]
  B. signalgrass plant response rating: 0
Surinam grass; Rate 500 g/ha, Postemergence, scale of 0 to 10 where 0 is no effect and 10 is complete control
  B. signalgrass plant response rating: 0
pigweed; [1]
  Redroot pigweed plant response rating: 0
pigweed; [5]
  Redroot pigweed plant response rating: 0
pigweed; [6]
  Plant response rating, Redroot pigweed: 0
pigweed; [7]
  Plant response rating, Redroot pigweed: 0
pigweed; [8]
  Plant response rating, Redroot pigweed: 0
pigweed; [9]
  Redroot pigweed plant response rating: 0
pigweed; [10]
  Redroot pigweed plant response rating: 0
pigweed; [11]
  Redroot pigweed plant response rating: 0
Giant foxtail; [1]
  Giant foxtail plant response rating: 1
Giant foxtail; [5]
  Giant foxtail plant response rating: 9
Giant foxtail; [6]
  Plant response rating, Giant foxtail: 8
Giant foxtail; [7]
  Plant response rating, Giant foxtail: 8
Giant foxtail; [8]
  Plant response rating, Giant foxtail: 10
Giant foxtail; [9]
  Giant foxtail plant response rating: 10
Giant foxtail; [10]
  Giant foxtail plant response rating: 4
Giant foxtail; [11]
  Giant foxtail plant response rating: 9

## CC(C)N(C(=O)n1oc(=O)n(Cc2cccnc2)c1=O)c1ccc(F)cc1 [Compound 366]
rice; [12]
  Plant response rating, Rice (0 to 10 scale, 0 is no effect, 10 is complete control): 0
rice; [13]
  Rice plant response rating: 0
rice; [14]
  Rice plant response rating: 0
rice; [15]
  Rice plant response rating: 0
Duck salad; [12]
  Plant response rating, Ducksalad (0 to 10 scale, 0 is no effect, 10 is complete control): 0
Duck salad; [13]
  Ducksalad plant response rating: 0
Duck salad; [14]
  Ducksalad plant response rating: 0
Duck salad; [15]
  Ducksalad plant response rating: 0
Smallflower flatsedge; [12]
  Plant response rating, S. Flatsedge (0 to 10 scale, 0 is no effect, 10 is complete control): 0
Smallflower flatsedge; [13]
  S. Flatsedge plant response rating: 0
Smallflower flatsedge; [14]
  S. Flatsedge plant response rating: 0
Smallflower flatsedge; [15]
  S. Flatsedge plant response rating: 0
bamyardgrass; [12]
  Plant response rating, Barnyardgrass (0 to 10 scale, 0 is no effect, 10 is complete control): 0
bamyardgrass; [13]
  Barnyardgrass plant response rating: 0
bamyardgrass; [14]
  Barnyardgrass plant response rating: 0
bamyardgrass; [15]
  Barnyardgrass plant response rating: 0
